Laboratory results reported in patent EP4692091A1, “CA[…], AND PHARMACEUTICAL COMPOSITION, PREPARATION METHOD THEREFOR AND USE THEREOF” (Changchun Genescience Pharmaceutical Co., Ltd., priority 2023, dated 2024).
Converted amounts (≈) assume the structure as drawn.

Columns and labels:
NCI-N87 = assay: Inhibition of proliferation of NCI-N87 cells by test compounds (CellTiter-Glo, 72 h); format: cell-based; settings: Homo sapiens, NCI-N87, 72 h, NCI-N87, 72 h incubation
Method in brief: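 NCI-N87 cells were treated after adhesion with compound (final DMSO 0.33%) for 72 h at 37°C. Viability was read as CellTiter-Glo luminescence, and IC50 came from a four-parameter nonlinear fit.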

[1] = Pharmacokinetic test in SD rats; format: in vivo; settings: rat, 2 mg/kg, male SD rats, single intravenous injection, 2 mpk, plasma
Experimental: After a single intravenous injection (dose: 2 mpk) of the compounds 6-2, 11-2, 17-2, and Dxd into male SD rats (blood collection time points: 0.083 h, 0.25 h, 0.5 h, 1 h, 2 h, 4 h, 8 h, and 24 h after IV administration, totaling 8 blood collection time points), average pharmacokinetic parameters in the plasma are as shown in Table 5: Table 5 Pharmacokinetic test result of representative compounds

CYP1A2 = CYP1A2 (Homo sapiens, UniProt P05177); assay: CYP inhibition in human hepatomicrosomes, CYP1A2
CYP2D6 = CYP2D6 (Homo sapiens, UniProt P10635); assay: CYP inhibition in human hepatomicrosomes, CYP2D6
MDA-MB-468 = assay: Inhibition of proliferation of MDA-MB-468 cells by test compounds (CellTiter-Glo, 72 h); format: cell-based; settings: Homo sapiens, MDA-MB-468, 72 h, MDA-MB-468, 72 h incubation
Method in brief: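 Cells plated, allowed to adhere, then treated with compounds (final DMSO 0.33%) for 72 h at 37°C. Viability read by CellTiter-Glo luminescence after 30 min at room temperature; IC50 from four-parameter nonlinear fit.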

[2] = Kinetic solubility test in PBS 7.4; format: physicochemical; settings: pH 7.4, aqueous buffer
Experimental: 10 mM stock solutions of the test substances 6-2, 11-2, 17-2, Dxd, and the control drugs progesterone and diclofenac were prepared using DMSO respectively.
15 µL of 10 mM stock solution of each of the test substances was added to a corresponding position of a corresponding 96-well plate in a specified sequence. 485 µL of the PBS 7.4 was added to a corresponding vial on a sample plate. The experiment was run in duplicate. Each vial was additionally provided with a stirring rod and was plugged. Then, the sample plate was transferred in a thermostatic mixer, and oscillated at a revolving speed of 1,100 rpm at 25°C for 2 h. 2 h later, the plug was removed, the stirring rod was attracted away with a large magnet, and then the sample was transferred from the sample plate to the filter plate. Negative pressure was generated using a vacuum pump to filter the sample. 5 µL of filtrate and 5 µL of blank DMSO were transferred to another sample plate, and then 490 µL of internal standard water (acetonitrile:water=1:1) containing the internal standard was added. Depending on peak shapes, a certain proportion of internal standard water may be used to dilute the sample diluent to give better peak shapes. […]
The sample filtrate was analyzed and quantified by qualitative and quantitative LC/MS of standard substance peaks at known concentrations. […]

Chain of CYP2D6 (P10635 whole entry): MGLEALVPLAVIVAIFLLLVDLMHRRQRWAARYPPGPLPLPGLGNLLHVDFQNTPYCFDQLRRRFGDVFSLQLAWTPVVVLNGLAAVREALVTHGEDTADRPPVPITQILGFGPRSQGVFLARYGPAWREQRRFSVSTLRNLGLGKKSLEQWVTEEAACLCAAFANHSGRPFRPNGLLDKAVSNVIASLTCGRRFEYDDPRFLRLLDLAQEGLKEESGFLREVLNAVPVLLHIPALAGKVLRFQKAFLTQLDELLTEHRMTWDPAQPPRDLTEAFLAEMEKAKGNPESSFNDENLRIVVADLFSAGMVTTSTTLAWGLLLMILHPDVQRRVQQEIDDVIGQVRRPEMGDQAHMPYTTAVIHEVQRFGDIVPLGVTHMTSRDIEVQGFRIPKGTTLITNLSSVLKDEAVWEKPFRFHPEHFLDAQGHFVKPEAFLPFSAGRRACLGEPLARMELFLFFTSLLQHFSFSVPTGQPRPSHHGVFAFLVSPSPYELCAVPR
Chain of CYP1A2 (P05177 whole entry): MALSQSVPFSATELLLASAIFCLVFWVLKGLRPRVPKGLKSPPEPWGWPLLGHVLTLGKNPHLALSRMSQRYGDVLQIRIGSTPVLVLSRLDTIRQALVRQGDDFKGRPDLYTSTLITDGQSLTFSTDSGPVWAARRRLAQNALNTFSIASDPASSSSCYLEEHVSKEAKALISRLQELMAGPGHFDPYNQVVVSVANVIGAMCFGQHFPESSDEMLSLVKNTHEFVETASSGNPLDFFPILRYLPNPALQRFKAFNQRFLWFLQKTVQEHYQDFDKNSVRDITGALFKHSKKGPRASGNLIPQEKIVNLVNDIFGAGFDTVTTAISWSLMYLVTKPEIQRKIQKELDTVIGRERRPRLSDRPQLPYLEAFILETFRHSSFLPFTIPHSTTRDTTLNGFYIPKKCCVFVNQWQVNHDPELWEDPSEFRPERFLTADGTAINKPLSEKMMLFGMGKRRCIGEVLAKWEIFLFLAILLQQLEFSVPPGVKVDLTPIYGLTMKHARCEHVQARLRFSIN

SMILES: CC[C@@]1(O)C(=O)OCc2c1cc1n(c2=O)Cc2c-1nc1cc(F)c(C)c3c1c2[C@@H](NC(=O)CO)CC3 [Dxd]
- IC50 (NCI-N87): 11 nM
- AUC(0-inf) [1]: 302 ng·h/mL
- AUC(0-t) [1]: 301 ng·h/mL
- C0 [1]: 748 ng/mL
- clearance [1]: 113 mL/min/kg
- half-life [1]: 23.4 min
- Vd ([1]; read-out: Vss): 2.7 L/kg
- IC50 (CYP1A2): > 30000 nM
- IC50 (CYP2D6): > 30000 nM
- IC50 (MDA-MB-468): 4.6 nM
- solubility at 2 h [2]: 11.3 µM (≈ 5.58 µg/mL)
